Data as given in the NIST ThermoML archive (doi:10.1016/j.jct.2017.02.023).

Legend:
[1] = xn = mol fraction of the nth substance listed; conditions: 81.5 kPa, Liquid, Vibrating tube method
[2] = refractive index (Na D-line) (dimensionless); xn = mol fraction of the nth substance listed; conditions: 81.5 kPa, Liquid, Standard Abbe refractometry

CNC1CCCCC1 [N-methylcyclohexylamine] + CC(C)O
Conditions | mass density, 298.15 K [kg/m3] | mass density, 308.15 K [kg/m3] | mass density, 318.15 K [kg/m3] | mass density, 328.15 K [kg/m3] | refractive index, 298.15 K | refractive index, 308.15 K | refractive index, 318.15 K | refractive index, 328.15 K
[1], x2 = 0 | 865.2 | 856.57 | 847.67 | 838.68 | – | – | – | –
[1], x2 = 0.159 | 860.12 | 851.49 | 842.65 | 833.57 | – | – | – | –
[1], x2 = 0.2745 | 855.75 | 847.1 | 838.18 | 828.82 | – | – | – | –
[1], x2 = 0.3856 | 850.26 | 841.55 | 832.63 | 823.19 | – | – | – | –
[1], x2 = 0.4867 | 843.79 | 835.1 | 826.14 | 816.62 | – | – | – | –
[1], x2 = 0.5738 | 836.95 | 828.24 | 819.27 | 809.59 | – | – | – | –
[1], x2 = 0.6539 | 829.55 | 820.8 | 811.84 | 802 | – | – | – | –
[1], x2 = 0.7253 | 822.01 | 813.27 | 804.23 | 794.36 | – | – | – | –
[1], x2 = 0.7904 | 814.28 | 805.54 | 796.65 | 786.58 | – | – | – | –
[1], x2 = 0.85 | 806.34 | 797.64 | 788.79 | 778.81 | – | – | – | –
[1], x2 = 0.904 | 798.29 | 789.69 | 780.82 | 770.72 | – | – | – | –
[1], x2 = 0.9541 | 789.83 | 781.27 | 772.4 | 762.26 | – | – | – | –
[2], x2 = 0 | – | – | – | – | 1.45306 | 1.44812 | 1.4431 | 1.43809
[2], x2 = 0.159 | – | – | – | – | 1.4471 | 1.44293 | 1.43862 | 1.43418
[2], x2 = 0.2745 | – | – | – | – | 1.44224 | 1.43814 | 1.43386 | 1.42939
[2], x2 = 0.3856 | – | – | – | – | 1.43655 | 1.43263 | 1.42854 | 1.4242
[2], x2 = 0.4867 | – | – | – | – | 1.43021 | 1.42642 | 1.42248 | 1.41824
[2], x2 = 0.5738 | – | – | – | – | 1.42372 | 1.41996 | 1.41606 | 1.41185
[2], x2 = 0.6539 | – | – | – | – | 1.41688 | 1.41311 | 1.4092 | 1.40495
[2], x2 = 0.7253 | – | – | – | – | 1.41003 | 1.40629 | 1.40239 | 1.39812
[2], x2 = 0.7904 | – | – | – | – | 1.40314 | 1.39948 | 1.39565 | 1.39141
[2], x2 = 0.85 | – | – | – | – | 1.39619 | 1.39265 | 1.38892 | 1.38471
[2], x2 = 0.904 | – | – | – | – | 1.38928 | 1.38579 | 1.38209 | 1.37787
[2], x2 = 0.9541 | – | – | – | – | 1.38224 | 1.37859 | 1.37474 | 1.37035

CNC1CCCCC1 [N-methylcyclohexylamine] + CCCC(C)O
Conditions | mass density, 298.15 K [kg/m3] | mass density, 308.15 K [kg/m3] | mass density, 318.15 K [kg/m3] | mass density, 328.15 K [kg/m3] | refractive index, 298.15 K | refractive index, 308.15 K | refractive index, 318.15 K | refractive index, 328.15 K
[1], x2 = 0 | 865.2 | 856.57 | 847.67 | 838.68 | – | – | – | –
[1], x2 = 0.1044 | 861.35 | 852.83 | 844.04 | 835.12 | – | – | – | –
[1], x2 = 0.2039 | 857.57 | 849.03 | 840.23 | 831.28 | – | – | – | –
[1], x2 = 0.3 | 853.62 | 845.09 | 836.29 | 827.28 | – | – | – | –
[1], x2 = 0.391 | 849.43 | 840.92 | 832.15 | 823.1 | – | – | – | –
[1], x2 = 0.4776 | 844.86 | 836.35 | 827.59 | 818.52 | – | – | – | –
[1], x2 = 0.5621 | 839.71 | 831.21 | 822.49 | 813.38 | – | – | – | –
[1], x2 = 0.6395 | 834.44 | 825.96 | 817.29 | 808.15 | – | – | – | –
[1], x2 = 0.7115 | 829.18 | 820.72 | 812.03 | 802.91 | – | – | – | –
[1], x2 = 0.7926 | 822.85 | 814.43 | 805.84 | 796.73 | – | – | – | –
[1], x2 = 0.8644 | 817.04 | 808.68 | 800.16 | 791.09 | – | – | – | –
[1], x2 = 0.9338 | 811.24 | 802.9 | 794.42 | 785.33 | – | – | – | –
[2], x2 = 0 | – | – | – | – | 1.45306 | 1.44812 | 1.4431 | 1.43809
[2], x2 = 0.1044 | – | – | – | – | 1.45003 | 1.44535 | 1.44061 | 1.4359
[2], x2 = 0.2039 | – | – | – | – | 1.44678 | 1.44217 | 1.43745 | 1.43273
[2], x2 = 0.3 | – | – | – | – | 1.44339 | 1.43884 | 1.43417 | 1.42945
[2], x2 = 0.391 | – | – | – | – | 1.43985 | 1.43539 | 1.43078 | 1.42612
[2], x2 = 0.4776 | – | – | – | – | 1.43608 | 1.43168 | 1.42715 | 1.42254
[2], x2 = 0.5621 | – | – | – | – | 1.43195 | 1.42759 | 1.42311 | 1.41857
[2], x2 = 0.6395 | – | – | – | – | 1.42779 | 1.42345 | 1.419 | 1.41449
[2], x2 = 0.7115 | – | – | – | – | 1.42361 | 1.41932 | 1.4149 | 1.41042
[2], x2 = 0.7926 | – | – | – | – | 1.41862 | 1.41442 | 1.41007 | 1.40562
[2], x2 = 0.8644 | – | – | – | – | 1.41398 | 1.40989 | 1.40561 | 1.40119
[2], x2 = 0.9338 | – | – | – | – | 1.40928 | 1.40524 | 1.40097 | 1.39653
